# Data: PMC7413254 (Nature Communications, 2020)
# What was measured:
# Type in all cases: cell-based
# PfCRT^Ecu1110 [1] = molecular target: T1, PfCRT^Ecu1110 (Plasmodium falciparum, UniProt Q9N623, A220S/I356L/K76T/N326D); assay: cell-based; conditions: for PfCRT-mediated [3H]CQ transport, trans-stimulation (% PfCRTEcu1110 control): PfCRTEcu1110 oocytes, normalised to oocyte type control; for [3H]CQ transport (% PfCRTDd2 control), trans-stimulation, PfCRTEcu1110: PfCRT-mediated component (background subtracted), sheet title says normalised to PfCRTDd2 control, mean ± SEM, SEM
# Method in brief: (§1)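 Oocytes (ten per treatment, ≥4 independent frogs/days) were preloaded by injecting VF-6 in 25 nL ND96 at pH 5.0, 5.5, 6.0 or 7.0, or Na^+-free choline buffer, then uptake run 1.5 h, 27.5 °C, ND96 pH 5.5 by default. Internal concentrations assumed ~400 nL oocyte volume.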
# PfCRT^Dd2 [2] = molecular target: T2, PfCRT^Dd2 (Plasmodium falciparum, UniProt Q9N623, A220S/I356T/K76T/M74I/N326S/N75E/Q271E/R371I); assay: cell-based; conditions: for PfCRT-mediated [3H]CQ transport, trans-stimulation (% PfCRTDd2 control): PfCRTDd2 oocytes, normalised to oocyte type control; for [3H]CQ transport (% PfCRTDd2 control), trans-stimulation, PfCRTDd2: PfCRT-mediated component (background subtracted), mean ± SEM, SEM
# Method in brief: as §1
# PfCRT^3D7 = PfCRT^3D7 (Plasmodium falciparum, UniProt Q8IBZ9); assay: cell-based; conditions: for PfCRT-mediated [3H]CQ transport, trans-stimulation (% PfCRT3D7 control): PfCRT3D7 oocytes, normalised to oocyte type control
# Method in brief: as §1
# PfCRT^Ecu1110 [3] = molecular target: T1, PfCRT^Ecu1110; assay: [3H]CQ uptake into Xenopus oocytes, cis-inhibition by unlabelled solute; conditions: for PfCRT-mediated [3H]CQ transport, cis-inhibition (% PfCRTEcu1110 control): PfCRTEcu1110 oocytes, background [3H]CQ accumulation subtracted, normalised to oocyte type control; for [3H]CQ transport (% PfCRTEcu1110 control), cis-inhibition, PfCRTEcu1110: PfCRT-mediated component (background subtracted), sheet title says normalised to PfCRTDd2 control, mean ± SEM, SEM
# Method in brief: (§2)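 Using pH 5.5 ND96 at 27.5 °C, uptake is followed for 1.5 h, stopped with ice-cold buffer, and quantified as accumulated radioactivity per oocyte after SDS lysis.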
# PfCRT^Dd2 [4] = molecular target: T2, PfCRT^Dd2; assay: as above; conditions: PfCRTDd2 oocytes, background [3H]CQ accumulation subtracted, normalised to oocyte type control
# Method in brief: as §2
# [5] = [test solute]i = 5 mM (intracellular)
# [6] = [test solute]i = 45 mM (intracellular; 30 mM for some solutes due to solubility)
# [7] = [test solute]i = 5 mM (injected)
# [8] = [test solute]i = 45 mM (30 mM for some solutes due to solubility)
# Chain of PfCRT^3D7 (Q8IBZ9 59-398): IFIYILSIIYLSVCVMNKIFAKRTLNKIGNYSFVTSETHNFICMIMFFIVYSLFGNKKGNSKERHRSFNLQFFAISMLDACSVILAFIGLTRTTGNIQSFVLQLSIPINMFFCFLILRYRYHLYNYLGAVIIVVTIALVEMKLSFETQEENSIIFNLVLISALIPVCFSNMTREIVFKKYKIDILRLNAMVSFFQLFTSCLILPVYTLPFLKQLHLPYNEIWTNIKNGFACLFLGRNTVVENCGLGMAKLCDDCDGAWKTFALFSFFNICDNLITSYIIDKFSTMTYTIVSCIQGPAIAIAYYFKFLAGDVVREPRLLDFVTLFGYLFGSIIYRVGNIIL
# T1 sequence (Q9N623 whole entry A220S/I356L/K76T/N326D): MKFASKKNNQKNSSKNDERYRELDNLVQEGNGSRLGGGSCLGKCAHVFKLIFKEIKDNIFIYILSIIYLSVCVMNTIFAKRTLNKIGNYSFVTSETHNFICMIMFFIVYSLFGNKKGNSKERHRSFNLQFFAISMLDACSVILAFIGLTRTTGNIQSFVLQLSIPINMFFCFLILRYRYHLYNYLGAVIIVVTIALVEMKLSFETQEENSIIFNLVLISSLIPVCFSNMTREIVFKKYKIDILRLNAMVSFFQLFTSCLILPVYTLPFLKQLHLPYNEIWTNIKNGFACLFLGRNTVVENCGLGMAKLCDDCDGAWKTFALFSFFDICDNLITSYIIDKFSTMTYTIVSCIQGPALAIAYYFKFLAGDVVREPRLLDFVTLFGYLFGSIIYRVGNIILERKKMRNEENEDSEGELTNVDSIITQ
# T2 sequence (Q9N623 whole entry A220S/I356T/K76T/M74I/N326S/N75E/Q271E/R371I): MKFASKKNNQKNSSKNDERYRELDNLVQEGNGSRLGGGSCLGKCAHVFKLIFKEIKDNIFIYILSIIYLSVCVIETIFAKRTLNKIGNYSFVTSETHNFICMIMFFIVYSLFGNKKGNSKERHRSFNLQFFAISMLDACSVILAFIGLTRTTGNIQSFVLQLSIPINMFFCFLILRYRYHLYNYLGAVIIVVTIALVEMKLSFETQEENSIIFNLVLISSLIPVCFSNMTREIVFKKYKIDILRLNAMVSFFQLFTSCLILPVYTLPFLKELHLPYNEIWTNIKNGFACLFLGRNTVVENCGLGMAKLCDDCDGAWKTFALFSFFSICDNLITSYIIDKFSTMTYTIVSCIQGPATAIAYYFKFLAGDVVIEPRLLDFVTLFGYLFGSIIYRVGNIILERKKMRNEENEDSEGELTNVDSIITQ
Substance,"PfCRT-mediated [3H]CQ transport, trans-stimulation (% PfCRTEcu1110 control) (PfCRT^Ecu1110 [1]; [5])","PfCRT-mediated [3H]CQ transport, trans-stimulation (% PfCRTEcu1110 control) (PfCRT^Ecu1110 [1]; [6])","[3H]CQ transport (% PfCRTDd2 control), trans-stimulation, PfCRTEcu1110 (PfCRT^Ecu1110 [1]; [7])","[3H]CQ transport (% PfCRTDd2 control), trans-stimulation, PfCRTEcu1110 (PfCRT^Ecu1110 [1]; [8])","PfCRT-mediated [3H]CQ transport, trans-stimulation (% PfCRTDd2 control) (PfCRT^Dd2 [2]; [5])","PfCRT-mediated [3H]CQ transport, trans-stimulation (% PfCRTDd2 control) (PfCRT^Dd2 [2]; [6])","[3H]CQ transport (% PfCRTDd2 control), trans-stimulation, PfCRTDd2 (PfCRT^Dd2 [2]; [7])","[3H]CQ transport (% PfCRTDd2 control), trans-stimulation, PfCRTDd2 (PfCRT^Dd2 [2]; [8])","PfCRT-mediated [3H]CQ transport, trans-stimulation (% PfCRT3D7 control) (PfCRT^3D7; [5])","PfCRT-mediated [3H]CQ transport, trans-stimulation (% PfCRT3D7 control) (PfCRT^3D7; [6])","PfCRT-mediated [3H]CQ transport, cis-inhibition (% PfCRTEcu1110 control) (PfCRT^Ecu1110 [3]; [test solute] = 0.5 mM)","PfCRT-mediated [3H]CQ transport, cis-inhibition (% PfCRTEcu1110 control) (PfCRT^Ecu1110 [3]; [test solute] = 1 mM)","PfCRT-mediated [3H]CQ transport, cis-inhibition (% PfCRTEcu1110 control) (PfCRT^Ecu1110 [3]; [test solute] = 2 mM)","[3H]CQ transport (% PfCRTEcu1110 control), cis-inhibition, PfCRTEcu1110 (PfCRT^Ecu1110 [3]; [test solute] = 0.5 mM)","[3H]CQ transport (% PfCRTEcu1110 control), cis-inhibition, PfCRTEcu1110 (PfCRT^Ecu1110 [3]; [test solute] = 1 mM)","[3H]CQ transport (% PfCRTEcu1110 control), cis-inhibition, PfCRTEcu1110 (PfCRT^Ecu1110 [3]; [test solute] = 2 mM)","PfCRT-mediated [3H]CQ transport, cis-inhibition (% PfCRTDd2 control) (PfCRT^Dd2 [4]; [test solute] = 0.5 mM)","PfCRT-mediated [3H]CQ transport, cis-inhibition (% PfCRTDd2 control) (PfCRT^Dd2 [4]; [test solute] = 1 mM)","PfCRT-mediated [3H]CQ transport, cis-inhibition (% PfCRTDd2 control) (PfCRT^Dd2 [4]; [test solute] = 2 mM)","[3H]CQ transport (% PfCRT3D7 control), trans-stimulation, PfCRT3D7 (PfCRT^3D7; SEM)"
DLDDALDK [DK-8],95 ± 4.9 % PfCRTEcu1110 control,97 ± 2.9 % PfCRTEcu1110 control,29 ± 1.5 % PfCRTEcu1110 control,29 ± 1.1 % PfCRTEcu1110 control,98 ± 3.3 % PfCRTDd2 control,95 ± 4.1 % PfCRTDd2 control,98 ± 3.3 % PfCRTDd2 control,95 ± 4.1 % PfCRTDd2 control,96 ± 3.3 % PfCRT3D7 control,96 ± 3.4 % PfCRT3D7 control,49 ± 1.4 % PfCRTEcu1110 control,39 ± 2.1 % PfCRTEcu1110 control,30 ± 0.8 % PfCRTEcu1110 control,15 ± 0.6 % PfCRTEcu1110 control,13 ± 0.1 % PfCRTEcu1110 control,9.0 ± 0.05 % PfCRTEcu1110 control,44 ± 3.7 % PfCRTDd2 control,32 ± 1.5 % PfCRTDd2 control,24 ± 0.8 % PfCRTDd2 control,–
LHVDPENF [LF-8],96 ± 2.1 % PfCRTEcu1110 control,95 ± 3.2 % PfCRTEcu1110 control,–,–,99 ± 3.1 % PfCRTDd2 control,98 ± 2.3 % PfCRTDd2 control,–,–,97 ± 2.2 % PfCRT3D7 control,98 ± 4.2 % PfCRT3D7 control,31 ± 1.1 % PfCRTEcu1110 control,22 ± 2.0 % PfCRTEcu1110 control,11 ± 0.1 % PfCRTEcu1110 control,–,–,–,37 ± 2.0 % PfCRTDd2 control,21 ± 0.5 % PfCRTDd2 control,11 ± 0.2 % PfCRTDd2 control,–
LSFPTTK [LK-7],97 ± 3.3 % PfCRTEcu1110 control,93 ± 3.7 % PfCRTEcu1110 control,29 ± 1.6 % PfCRTEcu1110 control,29 ± 1.8 % PfCRTEcu1110 control,98 ± 4.3 % PfCRTDd2 control,95 ± 3.3 % PfCRTDd2 control,98 ± 4.3 % PfCRTDd2 control,95 ± 3.3 % PfCRTDd2 control,93 ± 3.2 % PfCRT3D7 control,94 ± 3.6 % PfCRT3D7 control,47 ± 1.1 % PfCRTEcu1110 control,33 ± 2.4 % PfCRTEcu1110 control,17 ± 0.4 % PfCRTEcu1110 control,15 ± 0.1 % PfCRTEcu1110 control,10 ± 0.4 % PfCRTEcu1110 control,5.0 ± 0.05 % PfCRTEcu1110 control,48 ± 2.6 % PfCRTDd2 control,37 ± 1.7 % PfCRTDd2 control,18 ± 0.7 % PfCRTDd2 control,0.1 ± 0.01
